Measured values from patent US20100227907A1, “Method of Treating Pain by Using Opioids and CAMKIV Inhibitors” (priority 2005, published 2010).

Experiments:
[1] = target: T1, CaMKIV transiently expressed in HEK293 cells (Homo sapiens, UniProt Q16566); assay: CREB luciferase reporter assay of CaMKIV activity in ionomycin-treated HEK293 cells transiently expressing CaMKIV; assay type: cell-based; conditions: 5 μM ionomycin, n=4 wells; for CREB activity, % of the control level: HEK293 expressing CaMKIV; for IC50: HEK293 transiently expressing CaMKIV, read-out: IC50 for inhibition of CaMKIV (CREB activity)
T1 construct: expressed in transfected cells; host or cells: HEK293
T1 sequence (Q16566 1-473): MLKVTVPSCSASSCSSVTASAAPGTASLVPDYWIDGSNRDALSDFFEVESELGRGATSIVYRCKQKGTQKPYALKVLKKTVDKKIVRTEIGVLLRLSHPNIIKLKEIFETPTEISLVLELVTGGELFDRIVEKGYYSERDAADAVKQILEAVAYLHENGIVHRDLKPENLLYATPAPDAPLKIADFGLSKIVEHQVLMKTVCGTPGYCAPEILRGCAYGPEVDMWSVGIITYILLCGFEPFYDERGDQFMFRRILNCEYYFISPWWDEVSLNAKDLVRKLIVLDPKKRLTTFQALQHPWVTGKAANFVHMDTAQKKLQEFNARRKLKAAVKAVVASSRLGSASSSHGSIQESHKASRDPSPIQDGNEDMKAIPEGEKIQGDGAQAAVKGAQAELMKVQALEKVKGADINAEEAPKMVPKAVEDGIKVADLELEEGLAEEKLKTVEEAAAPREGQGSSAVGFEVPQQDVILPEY
Description: (§1) HEK293 cells were seeded into 96-well plates. The next day, cells were cotransfected with the CaMKIV construct, pGL3-CRE-firefly luciferase and pGL3-CMV-Renilla luciferase constructs using Lipofectamine 2000 reagent (Invitrogen, CA) according to the manufacturer's recommendation. The following day, cells were treated with fresh medium containing DMSO as vehicle control or 5 μM ionomycin (Sigma, Mo.) in the presence or absence of KN62 or KN93 (Sigma, MO) at serial concentrations. Cells were harvested 16 h later. Luciferase activity was assayed with cell lysis by using the dual-luciferase reporter assay system (Promega, WI) according to the manufacturer's protocol.
(§2) The dose-dependent inhibitory effect of KN62 and KN93 on CaMKIV transiently expressed in HEK293 cells was determined. CaMKIV can activate CREB and stimulate CREB-mediated transcription through the direct phosphorylation of CREB on Ser-133. To measure the CaMKIV activity by CREB activity assay, the CaMKIV expression plasmids and a CREB luciferase reporter system were cotransfected into HEK293 cells in this study. The calcium ionophore ionomycin treatment can lead to an increase in intracellular Ca^2+ and Ca^2+/CaM levels, which influence CaMKIV activity in cells. Ionomycin (5 μM) can dramatically increase CREB activity in HEK293 cells expressing CaMKIV. The CREB activity is 5.5±0.2 times that of unstimulated cells (p<0.0001, compared to the unstimulated cells, n=4 wells, FIG. 8A).

[2] = tested on: substantia gelatiosa (SG) neurons in lamina II of the dorsal horn; assay: Whole-cell patch clamp recording of sIPSCs in spinal cord slices; assay type: cell-based, mouse
Description: Postnatal mice (12-19 days old) were anesthetized with 1-2% halothane and the thoracic and lumbar spinal cord were dissected out and put into pre-equilibrated artificial cerebrospinal solution fluid (ACSF) at 1-4° C. The spinal cord was placed into the shallow groove of an agar block, and several drops of 20% gelatin were placed on the low-thoracic and high-lumbar segment to half-embed the spinal cord. The agar block, together with the half-embedded spinal cord, was glued on the stage of a vibratome with cyanoacrylate adhesive, and was immersed in the ice-cold ACSF. Then, transverse slices of the lumber spinal cord (350 μm) were prepared. Slices were transferred to a room temperature submerged recovery chamber with oxygenated (95% O2 and 5% CO2) solution containing (in mM): NaCl, 124; NaHCO3, 25; KCl, 4.4; KH2PO4, 1; CaCl2, 2; MgSO4, 2; glucose, 10. After one hr recovery, slices were placed in a recording chamber on the stage of an Axioskop 2FS microscope (Zeiss) equipped with infrared DIC optics for patch clamp recordings. Substantia gelatiosa (SG) could be identified as a translucent band capping the dorsal part of the gray matter under the microscope. Spontaneous inhibitory postsynaptic currents (sIPSCs) were recorded with an Axon 200B amplifier (Axon Instruments, CA). Recording electrodes (3-5 MΩ) contained a pipette solution composed of (in mM): Cs-gluconate, 120; NaCl, 5; MgCl2 1; EGTA, 0.5; Mg-ATP, 2; Na3GTP, 0.1; HEPES, 10; pH 7.2; 280-300 mOsmol. Access resistance was 15-30 MΩ and was monitored throughout the experiment. Data were discarded if access resistance changed more than 15% during an experiment. The membrane potential was held at […] throughout the experiment. A holding potential of +10 mV was used to record spontaneous inhibitory postsynaptic currents (sIPSCs).

[3] = tested on: pCREB expression in the spinal cord; assay: pCREB expression in spinal cord after chronic morphine (western blot); assay type: in vivo, mouse; conditions: chronic morphine 10 mg/kg s.c. daily for seven days
Description: Open field locomotor activity was recorded for 1 hr after injection followed by determination of hot plate and tail flick response latencies.
Spinal cords were dounce-homogenized (18 strokes) in 10 volumes of 10 mM Tris-Cl (pH 7.4), 320 mM Sucrose, and 1% SDS. The tissue homogenates were centrifuged at 21,000×g at 4° C. for 5 min. Equal amounts of protein from tissue samples were separated by 4-12% gradient SDS-PAGE (Invitrogen), followed by Western blotting with anti-MOR-1 (1:1000), anti-pCREB (1:1000) (Santa Cruz Biotechnology) or anti-phosphoserine antibody (for immunoprecipitated samples, 1:1000) (Sigma) followed by revelation with ECL (Amersham). Membranes (BioTrace PVDF, Pall Co.) were routinely stripped and re-probed with a monoclonal antibody for actin (1:5000, Sigma) blotting to ensure equal protein loading.

[4] = tested on: pCREB in lamina I-II of the dorsal horn; assay: pCREB immunostaining in spinal cord after chronic morphine; assay type: in vivo, mouse; conditions: chronic morphine vs saline; both CaMKIV KO and wild-type mice; p<0.001
Description: Spinal cord slices at the lumbar region were prepared using standard histological methods. Slices were incubated with rabbit anti-pCREB IgG (1:250) (Calbiochem) or rabbit anti-MOR IgG (1:500) (ImmunoStar Incorporated) at 4° C. overnight. Followed by donkey anti-rabbit IgG conjugated with Alexa 488 (1:500) (Molecular Probes) for one hour at room temperature. Measurements were made from at least three randomly selected non-contiguous sections in each mouse (3-4 mice per treatment group), observed from coded slides and averaged so that each animal has a mean value for regional immunoreactivity. The total number and density of positive cells were measured in dorsal horn layers I-II and ventral horn layers VI-IX. All data were expressed as a ratio between cell number or density and unit area. Images were obtained with an Olympus microscope. Data were analyzed with ImagePro software (Media-Cybrenetics,).

[5] = tested on: mouse CaMKIV; assay: siRNA knock-down of CaMKIV expression in cultured cortical neurons (western blot); assay type: cell-based; conditions: 30 nM siRNA, 48 h after transfection, n=3 experiments
Description: Cortical neurons were prepared from postnatal day 0 (P0) mice. All procedures were reviewed and approved by the Institutional Animal Care and Use Committee at University of Toronto, in accordance with the guidelines of the Canadian Council on Animal Care. The Cerebral cortexes were dissected, minced, and trypsinized for 15 min using 0.125% trypsin (Invitrogen, CA). Cells were seeded at the density of 4˜5×10^5 cells/cm^2 onto 60 mm dishes or 96-well plates precoated with 50 μg/ml poly-D-lysine (Sigma, Mo.) in water, and grown in Neurobasal-A medium (Invitrogen, CA) supplemented with B27 and GlutaMax (Invitrogen, CA). The cultures were incubated at 37° C. in 95% air, 5% carbon dioxide with 95% humidity.
sequence 1: sense 5′-[…]tt-3′, antisense 5′-[…]tt-3′ and sequence 2: sense 5′-[…]tt-3′, antisense 5′-[…]tt-3′, respectively (Ambion, Tex.). The annealed siRNA was reconstituted at the concentration of 100 μM for transfection. […] Cells were harvested and analyzed 48 h after transfection.
The cultured cortical neurons were harvested and homogenized in lysis buffer containing proteinase inhibitor cocktail (Sigma, Mo.). Protein was quantified by Bradford assay, and electrophoresis of equal amounts of total protein was performed on SDS-polyacrylamide gels. […] The density of immunoblots was measured using NIH ImageJ software.

[6] = tested on: CREB activity in HEK293 cells expressing CaMKIV; assay: Ionomycin stimulation of CREB activity (luciferase reporter) in HEK293 cells expressing CaMKIV; assay type: cell-based; conditions: 5 μM ionomycin, n=4 wells, p<0.0001
Description: as §1
as §2, with “The CREB activity is 5.5±0.2 times that of unstimulated cells (p<0.0001, compared to the unstimulated cells, n=4 wells, FIG. 8A).” left out

Row | Compound | CREB activity, % of the control level ([1]; 0.01 μM inhibitor) | CREB activity, % of the control level ([1]; 0.1 μM inhibitor) | CREB activity, % of the control level ([1]; 1.0 μM inhibitor) | CREB activity, % of the control level ([1]; 10 μM inhibitor) | CREB activity, % of the control level ([1]; 50 μM inhibitor) | CREB activity, % of the control level ([1]; 100 μM inhibitor) | IC50 [1] | further results
1 | COc1ccc(S(=O)(=O)N(CCO)c2ccccc2CN(C)CC=Cc2ccc(Cl)cc2)cc1 [KN93, N-[2-[[[3-(4-Chlorophenyl)-2-propenyl]methylamino]methyl]phenyl]-N-(2-hydroxyethyl)-4-methoxybenzenesulphonamide] | 93.1±0.9% | 77.7±2.5% | 40.8±2.7% | 5.3±1.5% | 1.3±0.7% | 1.1±0.9% | 580 nM | –
2 | CN1CC[C@]23c4c5ccc(O)c4O[C@H]2[C@@H](O)C=C[C@H]3[C@H]1C5 [morphine] | – | – | – | – | – | – | – | decrease of the frequency of sIPSCs ([2]; acutely applied morphine, CaMKIV KO mice, n=6): 66.2±4.0%; decrease of the frequency of sIPSCs ([2]; acutely applied morphine, WT mice, n=7): 68.9±10.4%; decrease of the frequency of sIPSCs ([2]; slices pre-incubated in morphine at least 1 hour, CaMKIV KO mice, n=9): 55.7±6.9%; decrease of sIPSCs (in words) ([2]; slices pre-incubated in morphine at least 1 hour, WT mice, n=8, p>0.05): did not decrease; pCREB expression in spinal cord (western blot) ([3]; CaMKIV KO mice): absent; pCREB expression in spinal cord (western blot) ([3]; WT mice, p<0.001): significantly increased; pCREB in layer I and II of the dorsal horn (immunostaining) [4]: significantly increased
3 | sequence 1: siRNA for mouse CaMKIV: sense 5′-GCAUGAUAUGCACUAAUAGtt-3′, antisense 5′-CUAUUAGUGCAUAUCAUGCtt-3′ (sense GCAUGAUAUGCACUAAUAGTT; antisense CUAUUAGUGCAUAUCAUGCTT; chemistry not given here) | – | – | – | – | – | – | – | expression level of CaMKIV, % of the control [5]: 50.6±5.9%
4 | CN([C@@H](Cc1ccc(OS(=O)(=O)c2cccc3cnccc23)cc1)C(=O)N1CCN(c2ccccc2)CC1)S(=O)(=O)c1cccc2cnccc12 [KN62, 4-[(25)-2-[(5-isoquinolinylsulfonyl)methylamino]-3-oxo-3-(4-phrenyl-1-piperazinyl)propyl]phenyl isoquinolinesulfonic acid ester] | 98.4±0.8% | 85.3±1.2% | 55.5±2.5% | 11.5±2.6% | 1.3±2.9% | 1.2±1.4% | 1060 nM | –
5 | sequence 2: siRNA for mouse CaMKIV: sense 5′-CGGCUGACUACAUUUCAAGtt-3′, antisense 5′-CUUGAAAUGUAGUCAGCCGtt-3′ (sense CGGCUGACUACAUUUCAAGTT; antisense CUUGAAAUGUAGUCAGCCGTT; chemistry not given here) | – | – | – | – | – | – | – | knock down of the expression of CaMKIV (in words) [5]: could not knock down
6 | C[C@H](CCC(=O)O)C[C@H](C)C[C@H](C)C(=O)/C=C(\O)[C@H](C)C[C@H](C)C/C=C/[C@@H](C)[C@@H](O)[C@@H](C)[C@@H](O)C[C@@H]1CC[C@@](C)([C@H]2CC[C@@](C)([C@@H](C)O)O2)O1 [Ionomycin, ionomycin] | – | – | – | – | – | – | – | CREB activity, times that of unstimulated cells [6]: 5.5±0.2 times
